According to patent US20060069132A1, “Azolecarboxamide herbicides” (priority 2004, published 2006):

Assays:
barnyardgrass = experiment: Test B flooded paddy test; assay type: in vivo, Echinochloa crus-galli; settings: 1000 g ai/ha, scale 0 to 100 (0 no effect, 100 complete control)
Method in brief: (§1)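 Paddy species grown to the 2-leaf stage under flooding; blackgrass sprayed postemergence at 2–18 cm (1- to 4-leaf stage). Plants kept in a greenhouse for 13 to 15 days, then visually rated against controls on 0 (no effect) to 100 (complete control).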

rice = experiment: Test B flooded paddy test; assay type: in vivo, Oryza sativa; settings: 1000 g ai/ha, scale 0 to 100 (0 no effect, 100 complete control)
Method in brief: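 Plants grow to 1- to 4-leaf stage (2–18 cm) for postemergence spraying, or to 2-leaf stage for the paddy test. Formulated compound is applied. Greenhouse holding lasts 13–15 days. Response is scored visually relative to controls, 0 no effect to 100 complete control; a dash means no result.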

Surinam grass = experiment: Test B pre-/postemergence herbicide test; assay type: in vivo, Urochloa decumbens; settings: for Surinam Grass plant response rating: postemergence
Method in brief: (§2)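 Pre: seeds sown, then sprayed. Post: 1–4-leaf plants (2–18 cm) sprayed at the same time. Paddy: flooded, treated at 2-leaf stage. Formulation: non-phytotoxic solvent with surfactant. Greenhouse 13–15 days; visual 0–100 score relative to controls.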

large crabgrass = experiment: Test B pre-/postemergence herbicide test; assay type: in vivo, Digitaria sanguinalis
Method in brief: as §2

wild oat = experiment: Test B postemergence herbicide test; assay type: in vivo, Avena fatua; settings: for Oat, Wild plant response rating: postemergence; for Plant response rating, Oat, Wild: Postemergence, visual rating after 13 to 15 days
Method in brief: (§3)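 Each value is a visual 0–100 response rating taken against controls 13 to 15 days after treatment in the greenhouse. Plants received formulated chemical postemergence at the 1- to 4-leaf stage or, in flooded paddy, at the 2-leaf stage.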

wheat = experiment: Test B postemergence herbicide test; assay type: in vivo, Triticum aestivum; set-up: key to Wheat plant response rating: 0 = no effect, 100 = complete control; settings: for Wheat plant response rating: postemergence; for Plant response rating, Wheat: Postemergence, visual rating after 13 to 15 days
Method in brief: as §3

morningglory = experiment: Test B pre-/postemergence herbicide test; assay type: in vivo, Ipomoea coccinea; settings: for Morningglory plant response rating: postemergence
Method in brief: (§4)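 Test chemicals in a non-phytotoxic solvent mixture with surfactant were applied preemergence to seeded species and postemergence to plants 2-18 cm tall (1- to 4-leaf stage); rice and barnyardgrass were also tested in a flooded paddy at the 2-leaf stage. Visual rating versus controls after 13-15 days in greenhouse, scale 0 (no effect) to 100 (complete control).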

corn = experiment: Test B pre-/postemergence herbicide test; assay type: in vivo, Zea mays
Method in brief: as §2

blackgrass = experiment: Test B postemergence herbicide test; assay type: in vivo, Alopecurus myosuroides; settings: scale 0 (no effect) to 100 (complete control); for Blackgrass plant response rating: postemergence, visual rating; for Plant response rating, Blackgrass: Postemergence, visual rating after 13 to 15 days
Method in brief: as §1

lambsquarters = experiment: Test B pre-/postemergence herbicide test; assay type: in vivo, Chenopodium album; settings: for Lambsquarters plant response rating: postemergence
Method in brief: as §2

giant foxtail = experiment: Test B pre-/postemergence herbicide test; assay type: in vivo, Setaria faberi
Method in brief: as §2

pigweed = experiment: Test B pre-/postemergence herbicide test; assay type: in vivo, Amaranthus retroflexus; settings: for Pigweed plant response rating: postemergence
Method in brief: as §2

velvetleaf = experiment: Test B pre-/postemergence herbicide test; assay type: in vivo, Abutilon theophrasti; settings: for Velvetleaf plant response rating: postemergence
Method in brief: as §2

cocklebur = experiment: Test B pre-/postemergence herbicide test; assay type: in vivo, Xanthium strumarium
Method in brief: as §4

[1] = system: small flower umbrella sedge; experiment: Test B flooded paddy test; assay type: in vivo, Cyperus difformis; settings: 1000 g ai/ha, scale 0 to 100 (0 no effect, 100 complete control)
Method in brief: as §1

[2] = 125 g ai/ha, 0 = no effect, 100 = complete control, preemergence
[3] = 500 g ai/ha, visual rating, 0 = no effect, 100 = complete control, preemergence
[4] = 125 g ai/ha, visual rating, scale 0 (no effect) to 100 (complete control)
[5] = 500 g ai/ha, scale 0 to 100, 0 is no effect, 100 is complete control
[6] = postemergence, 125 g ai/ha, visual rating, scale 0 (no effect) to 100 (complete control)
[7] = postemergence, 500 g ai/ha, scale 0 to 100, 0 is no effect, 100 is complete control
[8] = 500 g ai/ha, visual rating 0-100, 0 no effect, 100 complete control, preemergence
[9] = Postemergence, 500 g ai/ha, visual rating after 13 to 15 days, scale 0 (no effect) to 100 (complete control)
[10] = preemergence, 125 g ai/ha, 0 to 100 scale, 0 is no effect, 100 is complete control
[11] = 500 g ai/ha, scale 0 (no effect) to 100 (complete control)
[12] = Preemergence, 500 g ai/ha, scale 0 to 100

CCn1nc(C(C)(C)C)cc1C(=O)Nc1cc(C(=O)N2CCCC2)ccc1F [Compound 242]
Barnyardgrass plant response rating (barnyardgrass): 90 | Rice plant response rating (rice): 90 | Surinam Grass plant response rating (0 to 100 scale) (Surinam grass; [2]): 70 | Plant response rating, Surinam Grass (Surinam grass; [3]): 90 | Surinam Grass plant response rating (Surinam grass; [4]): 30 | Surinam Grass plant response rating (Surinam grass; [5]): 60 | Crabgrass, Large plant response rating (0 to 100 scale) (large crabgrass; [2]): 90 | Plant response rating, Crabgrass, Large (large crabgrass; [3]): 100 | Crabgrass, Large plant response rating (large crabgrass; [6]): 30 | Crabgrass, Large plant response rating (large crabgrass; [7]): 50 | Oat, Wild plant response rating (wild oat; [4]): 10 | Oat, Wild plant response rating (wild oat; [5]): 30 | Wheat plant response rating (wheat; [4]): 10 | Wheat plant response rating (wheat; [5]): 10 | Morningglory plant response rating (0 to 100 scale) (morningglory; [2]): 0 | Plant response rating, Morningglory (morningglory; [3]): 10 | Morningglory plant response rating (morningglory; [4]): 20 | Morningglory plant response rating (morningglory; [5]): 40 | Corn plant response rating (0 to 100 scale) (corn; [2]): 30 | Plant response rating, Corn (corn; [3]): 60 | Corn plant response rating (corn; [6]): 10 | Corn plant response rating (corn; [7]): 40 | Blackgrass plant response rating (blackgrass; 125 g ai/ha): 10 | Blackgrass plant response rating (blackgrass; 500 g ai/ha): 20 | Lambsquarters plant response rating (0 to 100 scale) (lambsquarters; [2]): 100 | Plant response rating, Lambsquarters (lambsquarters; [3]): 100 | Lambsquarters plant response rating (lambsquarters; [4]): 90 | Lambsquarters plant response rating (lambsquarters; [5]): 90 | Foxtail, Giant plant response rating (0 to 100 scale) (giant foxtail; [2]): 80 | Plant response rating, Foxtail, Giant (giant foxtail; [3]): 90 | Foxtail, Giant plant response rating (giant foxtail; [6]): 20 | Foxtail, Giant plant response rating (giant foxtail; [7]): 30 | Pigweed plant response rating (0 to 100 scale) (pigweed; [2]): 100 | Plant response rating, Pigweed (pigweed; [3]): 100 | Pigweed plant response rating (pigweed; [4]): 60 | Pigweed plant response rating (pigweed; [5]): 80 | Velvetleaf plant response rating (0 to 100 scale) (velvetleaf; [2]): 50 | Plant response rating, Velvetleaf (velvetleaf; [3]): 100 | Velvetleaf plant response rating (velvetleaf; [4]): 50 | Velvetleaf plant response rating (velvetleaf; [5]): 60 | Cocklebur plant response rating (0 to 100 scale) (cocklebur; [2]): 10 | Plant response rating, Cocklebur (cocklebur; [3]): 40 | Cocklebur plant response rating (cocklebur; [6]): 40 | Cocklebur plant response rating (cocklebur; postemergence, 500 g ai/ha, visual rating, scale 0 (no effect) to 100 (complete control)): 90 | Sedge, Umbrella plant response rating [1]: 90

C=CCn1nc(C(C)(C)C)cc1C(=O)Nc1cccc(C(C)=NO)c1 [Compound 117]
Barnyardgrass plant response rating (barnyardgrass; visual rating, 13 to 15 days): 70 | Rice plant response rating (rice; visual rating, 13 to 15 days): 50 | Plant response rating, Surinam Grass (Surinam grass; [8]): 60 | Plant response rating, Surinam Grass (Surinam grass; [9]): 40 | Surinam Grass plant response rating (Surinam grass; [4]): 30 | Plant response rating, Surinam Grass (Surinam grass; [10]): 30 | Plant response rating, Crabgrass, Large (large crabgrass; [8]): 100 | Plant response rating, Crabgrass, Large (large crabgrass; [9]): 30 | Crabgrass, Large plant response rating (large crabgrass; [6]): 10 | Plant response rating, Crabgrass, Large (large crabgrass; [10]): 90 | Plant response rating, Oat, Wild (wild oat; [11]): 20 | Oat, Wild plant response rating (wild oat; [4]): 10 | Plant response rating, Wheat (wheat; [11]): 20 | Wheat plant response rating (wheat; [4]): 10 | Plant response rating, Morningglory (morningglory; [8]): 60 | Plant response rating, Corn (corn; [8]): 30 | Plant response rating, Corn (corn; [10]): 0 | Plant response rating, Blackgrass (blackgrass; 500 g ai/ha): 10 | Blackgrass plant response rating (blackgrass; 125 g ai/ha): 0 | Plant response rating, Lambsquarters (lambsquarters; [8]): 100 | Plant response rating, Lambsquarters (lambsquarters; [9]): 90 | Lambsquarters plant response rating (lambsquarters; [4]): 60 | Plant response rating, Lambsquarters (lambsquarters; [10]): 90 | Plant response rating, Foxtail, Giant (giant foxtail; [8]): 80 | Plant response rating, Foxtail, Giant (giant foxtail; [9]): 20 | Foxtail, Giant plant response rating (giant foxtail; [6]): 10 | Plant response rating, Foxtail, Giant (giant foxtail; [10]): 20 | Plant response rating, Pigweed (pigweed; [8]): 90 | Plant response rating, Pigweed (pigweed; [9]): 90 | Pigweed plant response rating (pigweed; [4]): 50 | Plant response rating, Pigweed (pigweed; [10]): 60 | Plant response rating, Velvetleaf (velvetleaf; [8]): 70 | Plant response rating, Velvetleaf (velvetleaf; [9]): 50 | Velvetleaf plant response rating (velvetleaf; [4]): 20 | Plant response rating, Velvetleaf (velvetleaf; [10]): 60 | Plant response rating, Cocklebur (cocklebur; [8]): 30 | Plant response rating, Cocklebur (cocklebur; [9]): 90 | Cocklebur plant response rating (cocklebur; [6]): 30 | Plant response rating, Cocklebur (cocklebur; [10]): 20 | Sedge, Umbrella plant response rating ([1]; visual rating, 13 to 15 days): 90

C=CCOC(=O)c1cccc(NC(=O)c2cc(C(C)(C)C)nn2CC)c1 [Compound 85]
Barnyardgrass plant response rating (barnyardgrass; visual rating, 13 to 15 days): 40 | Rice plant response rating (rice; visual rating, 13 to 15 days): 40 | Plant response rating, Surinam Grass (Surinam grass; [9]): 70 | Surinam Grass plant response rating (Surinam grass; [4]): 60 | Plant response rating, Surinam Grass (Surinam grass; [10]): 0 | Plant response rating, Crabgrass, Large (large crabgrass; [9]): 80 | Crabgrass, Large plant response rating (large crabgrass; [12]): 0 | Crabgrass, Large plant response rating (large crabgrass; [6]): 50 | Plant response rating, Crabgrass, Large (large crabgrass; [10]): 0 | Plant response rating, Oat, Wild (wild oat; [11]): 50 | Oat, Wild plant response rating (wild oat; [4]): 20 | Plant response rating, Wheat (wheat; [11]): 60 | Wheat plant response rating (wheat; [4]): 50 | Plant response rating, Morningglory (morningglory; [9]): 100 | Morningglory plant response rating (morningglory; [4]): 50 | Plant response rating, Morningglory (morningglory; [10]): 0 | Plant response rating, Corn (corn; [9]): 30 | Corn plant response rating (corn; [12]): 0 | Corn plant response rating (corn; [6]): 20 | Plant response rating, Corn (corn; [10]): 0 | Plant response rating, Blackgrass (blackgrass; 500 g ai/ha): 20 | Blackgrass plant response rating (blackgrass; 125 g ai/ha): 10 | Plant response rating, Lambsquarters (lambsquarters; [9]): 60 | Lambsquarters plant response rating (lambsquarters; [4]): 50 | Plant response rating, Lambsquarters (lambsquarters; [10]): 0 | Plant response rating, Foxtail, Giant (giant foxtail; [9]): 50 | Foxtail, Giant plant response rating (giant foxtail; [12]): 0 | Foxtail, Giant plant response rating (giant foxtail; [6]): 20 | Plant response rating, Foxtail, Giant (giant foxtail; [10]): 0 | Plant response rating, Pigweed (pigweed; [9]): 100 | Pigweed plant response rating (pigweed; [4]): 100 | Plant response rating, Pigweed (pigweed; [10]): 0 | Plant response rating, Velvetleaf (velvetleaf; [9]): 80 | Velvetleaf plant response rating (velvetleaf; [4]): 60 | Plant response rating, Velvetleaf (velvetleaf; [10]): 0 | Plant response rating, Cocklebur (cocklebur; [9]): 100 | Cocklebur plant response rating (cocklebur; [12]): 0 | Cocklebur plant response rating (cocklebur; [6]): 90 | Plant response rating, Cocklebur (cocklebur; [10]): 0 | Sedge, Umbrella plant response rating ([1]; visual rating, 13 to 15 days): 60
